For one compound, activity increase and efflux results are on record in PubChem BioAssay AID1407 (Johns Hopkins Ion Channel Center, 2008).

The target of this assay is Potassium voltage-gated channel subfamily KQT member 2 (Rattus norvegicus) (UniProt O88943). Kind of assay: PubChem AID 1407. The note with it: KCNQ2-expressing cells, rubidium efflux, at 10 µM, stronger effect = higher value.
Chain of Potassium voltage-gated channel subfamily KQT member 2 (Rattus norvegicus) (O88943 whole entry, looked up): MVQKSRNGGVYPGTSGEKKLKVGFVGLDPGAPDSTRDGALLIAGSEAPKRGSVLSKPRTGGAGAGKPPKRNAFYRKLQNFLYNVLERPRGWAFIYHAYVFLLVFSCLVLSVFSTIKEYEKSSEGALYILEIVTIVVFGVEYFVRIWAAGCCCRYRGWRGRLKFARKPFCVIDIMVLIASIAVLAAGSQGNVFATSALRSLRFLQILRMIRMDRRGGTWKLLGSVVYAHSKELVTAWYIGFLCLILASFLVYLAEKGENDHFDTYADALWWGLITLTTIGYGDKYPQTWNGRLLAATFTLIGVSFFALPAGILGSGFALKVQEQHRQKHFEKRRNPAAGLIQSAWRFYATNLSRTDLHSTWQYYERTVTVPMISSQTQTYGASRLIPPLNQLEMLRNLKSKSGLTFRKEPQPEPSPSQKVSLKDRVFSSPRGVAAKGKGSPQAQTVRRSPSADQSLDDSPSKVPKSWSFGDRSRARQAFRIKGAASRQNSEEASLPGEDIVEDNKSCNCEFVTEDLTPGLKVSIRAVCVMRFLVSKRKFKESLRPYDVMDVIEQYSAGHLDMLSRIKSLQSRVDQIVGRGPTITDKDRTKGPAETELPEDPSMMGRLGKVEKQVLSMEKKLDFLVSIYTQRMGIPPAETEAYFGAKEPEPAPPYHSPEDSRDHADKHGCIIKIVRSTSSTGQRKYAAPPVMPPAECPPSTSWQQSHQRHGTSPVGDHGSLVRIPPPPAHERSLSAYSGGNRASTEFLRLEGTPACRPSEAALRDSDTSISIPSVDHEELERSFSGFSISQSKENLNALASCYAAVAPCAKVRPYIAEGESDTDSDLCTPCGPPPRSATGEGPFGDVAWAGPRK

In the case of `O[N+]1=CC=CCC1=S.On1ccccc1=S.[Zn]`, the activity increase is 23.1%. Under “measured here: rubidium efflux percent”, this compound had an efflux of 85.5%.
